Reference: ChEMBL document CHEMBL2086360, “α-Glucosidase inhibitory hydrolyzable tannins from Eugenia jambolana seeds” (J Nat Prod, 2012)

Experiment: Inhibition of yeast alpha-glucosidase using p-nitrophenyl-alpha-D-glucopyranoside as substrate compound pre-incubated for 10 mins before substrate addition measured after 5 mins by microplate reader
Set-up: species or system Saccharomyces cerevisiae

SMILES	IC50 [µM]
O=C(O[C@H]1[C@H](O)[C@@H](CO)OC(O)[C@@H]1OC(=O)c1cc(O)c(O)c(O)c1Oc1c(O)cc2c(=O)oc3c(O)c(O)cc4c(=O)oc1c2c34)c1cc(O)c(O)c(O)c1 (mixture of isomers)	8.2
C[C@H]1O[C@H](O[C@H]2[C@H](O)[C@@H](O)[C@@H](O[C@H]3[C@H](O)[C@@H](O)C(O)O[C@@H]3CO)O[C@@H]2CO)[C@H](O)[C@@H](O)[C@@H]1N[C@H]1C=C(CO)[C@@H](O)[C@H](O)[C@H]1O (stereo not given in full) [ACARBOSE]	209
O=C(O[C@H]1[C@@H]2OC(=O)c3cc(O)c(O)c(O)c3-c3c(cc(O)c(O)c3O)C(=O)OC[C@H]2OC(O)[C@@H]1OC(=O)c1cc(O)c(O)c(O)c1Oc1cc2c(=O)oc3c(O)c(O)cc4oc(=O)c(c1O)c2c43)c1cc(O)c(O)c(O)c1 (stereo not given in full) [CORNUSSIN B]	12.2
O=C(O[C@H]1[C@H](O)[C@@H](CO)OC(O)[C@@H]1OC(=O)c1cc(O)c(O)c(O)c1Oc1cc2c(=O)oc3c(O)c(O)cc4c(=O)oc(c1O)c2c34)c1cc(O)c(O)c(O)c1 (stereo not given in full) [OENOTHEIN C]	75.1
COc1cc2oc(-c3ccc(O)cc3)cc(=O)c2c(O)c1[C@@H]1O[C@H](CO)[C@@H](O)[C@H](O)[C@H]1O [SWERTISIN]	146
